Where only a bound is given, the exact number is not on record here.

The first experiment deals with T1, Neuronal acetylcholine receptor subunit alpha-7 (Rattus norvegicus, UniProt Q05941). The experiment can be described thus: biochemical.
T1 sequence (Q05941 whole entry): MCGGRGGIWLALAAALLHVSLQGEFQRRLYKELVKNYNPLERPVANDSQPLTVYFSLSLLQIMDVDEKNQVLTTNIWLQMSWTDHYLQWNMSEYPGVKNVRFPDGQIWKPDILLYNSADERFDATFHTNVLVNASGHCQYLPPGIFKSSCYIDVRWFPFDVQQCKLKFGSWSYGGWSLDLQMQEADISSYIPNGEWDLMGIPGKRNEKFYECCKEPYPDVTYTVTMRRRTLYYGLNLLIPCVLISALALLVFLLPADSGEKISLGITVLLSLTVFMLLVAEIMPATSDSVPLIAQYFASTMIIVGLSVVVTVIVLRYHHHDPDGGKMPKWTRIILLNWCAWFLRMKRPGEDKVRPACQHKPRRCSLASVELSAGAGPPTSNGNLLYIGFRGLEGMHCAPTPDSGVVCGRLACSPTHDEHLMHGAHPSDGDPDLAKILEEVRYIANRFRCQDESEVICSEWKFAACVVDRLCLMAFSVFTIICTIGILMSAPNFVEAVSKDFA
Description: In vitro binding affinity towards Nicotinic acetylcholine receptor alpha7 using [125I]-alpha-Bungarotoxin in rat brain
As to `O=c1cccc2n1C[C@@H]1CNC[C@H]2C1` [CYTISINICLINE], the affinity, expressed as Ki, was 0.0009 µM.

The target of a further experiment is T1, Neuronal acetylcholine receptor subunit alpha-7. In words: In vitro binding affinity towards Nicotinic acetylcholine receptor alpha7 using [125I]alpha-bungarotoxin in rat brain. The class given is tissue-based.
Molecule `CN1CCCC[C@H]1[C@H]1CCc2cc(O)ccc2O1` (racemic) registered a Ki of more than 10 µM.

`CN1CCCC[C@H]1[C@@H]1CCc2cc(O)ccc2O1` (racemic) registered an inhibition constant (Ki) of more than 10 µM.

For `CN1CCCC[C@H]1[C@@H]1CCc2ccccc2O1` (racemic), the Ki is more than 10 µM.

On to `Cc1ncccc1OCC1CCCN1` (single isomer, unassigned; form 1) [POZANICLINE], for which the inhibition constant (Ki) was more than 10 µM.

`Cc1ncccc1OCC1CCCN1` (single isomer, unassigned; form 2) showed an inhibition constant (Ki) of more than 10 µM.

Consider `CN1CCCC[C@H]1[C@H]1CCc2ccccc2O1` (racemic), for which the inhibition constant Ki was more than 10 µM.

By Ki is commonly meant the equilibrium dissociation constant of an inhibitor or competing ligand from its target. A high value points to a looser hold on the target.
